From the supplement of paper PMC12463676, “Small-molecule dissolution of stress granules by redox modulation benefits ALS models” (Nature Chemical Biology, 2025)

What follows are targets tested with O=[As]([O-])(O)O.[K+] [potassium arsenate] (assay: thermal stability z-score vs DMSO; higher = more thermally stabilized by treatment). Conditions: HeLa; arsenate concentration 1 mM.
Description: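 Cellular thermal proteome profiling in HeLa cells treated with 1 mM arsenate for 1 h (DMSO pretreatment), heated to ten temperatures (37-66.3 °C). Soluble protein was quantified by TMT mass spectrometry relative to DMSO controls; the thermal stability score was transformed to a z-score; mean of n = 3 experiments.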
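Also: each temperature applied for 3 min, abundance score taken as mean log2 fold change at the two lowest temperatures, z-score obtained by mean subtraction and division by SD.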

Chain of UniProt O60506 (O60506 whole entry): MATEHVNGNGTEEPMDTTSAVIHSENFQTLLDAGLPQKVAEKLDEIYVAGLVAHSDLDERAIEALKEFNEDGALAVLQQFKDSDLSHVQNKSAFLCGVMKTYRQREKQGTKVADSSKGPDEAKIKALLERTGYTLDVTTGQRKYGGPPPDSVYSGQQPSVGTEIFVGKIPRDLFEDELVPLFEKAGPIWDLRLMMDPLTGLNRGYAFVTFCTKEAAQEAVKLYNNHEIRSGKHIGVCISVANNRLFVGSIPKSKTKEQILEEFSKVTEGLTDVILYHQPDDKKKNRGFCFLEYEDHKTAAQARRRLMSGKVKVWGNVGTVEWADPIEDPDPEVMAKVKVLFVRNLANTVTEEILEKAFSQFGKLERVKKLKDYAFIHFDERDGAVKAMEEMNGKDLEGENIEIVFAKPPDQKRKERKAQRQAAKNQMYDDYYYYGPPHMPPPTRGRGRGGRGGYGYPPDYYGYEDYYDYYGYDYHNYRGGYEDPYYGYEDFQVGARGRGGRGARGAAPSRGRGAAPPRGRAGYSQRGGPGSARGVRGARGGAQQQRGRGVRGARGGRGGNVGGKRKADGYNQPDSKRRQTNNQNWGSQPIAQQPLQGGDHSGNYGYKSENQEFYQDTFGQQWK
Chain of UniProt Q5BJF6 (Q5BJF6 whole entry): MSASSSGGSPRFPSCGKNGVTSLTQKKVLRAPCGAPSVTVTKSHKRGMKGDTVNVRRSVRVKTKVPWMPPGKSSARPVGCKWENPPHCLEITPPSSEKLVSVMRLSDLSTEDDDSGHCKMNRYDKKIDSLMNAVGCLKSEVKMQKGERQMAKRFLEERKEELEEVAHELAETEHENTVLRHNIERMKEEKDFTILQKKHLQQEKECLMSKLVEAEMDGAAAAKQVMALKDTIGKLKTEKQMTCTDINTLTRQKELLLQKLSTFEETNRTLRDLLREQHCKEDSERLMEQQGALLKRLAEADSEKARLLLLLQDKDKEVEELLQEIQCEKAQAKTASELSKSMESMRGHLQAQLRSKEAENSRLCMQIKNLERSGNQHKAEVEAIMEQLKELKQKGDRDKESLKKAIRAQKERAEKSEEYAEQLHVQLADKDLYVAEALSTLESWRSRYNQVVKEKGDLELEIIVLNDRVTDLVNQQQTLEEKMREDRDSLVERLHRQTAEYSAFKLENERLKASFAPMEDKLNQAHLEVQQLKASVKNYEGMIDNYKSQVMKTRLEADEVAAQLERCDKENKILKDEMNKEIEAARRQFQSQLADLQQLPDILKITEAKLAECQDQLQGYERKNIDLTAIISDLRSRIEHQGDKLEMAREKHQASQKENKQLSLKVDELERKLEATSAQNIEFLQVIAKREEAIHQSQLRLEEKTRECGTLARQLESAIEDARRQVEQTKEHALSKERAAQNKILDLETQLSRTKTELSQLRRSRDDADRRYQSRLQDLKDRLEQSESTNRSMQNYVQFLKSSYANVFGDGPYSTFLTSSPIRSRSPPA
Chain of UniProt P38646 (P38646 whole entry): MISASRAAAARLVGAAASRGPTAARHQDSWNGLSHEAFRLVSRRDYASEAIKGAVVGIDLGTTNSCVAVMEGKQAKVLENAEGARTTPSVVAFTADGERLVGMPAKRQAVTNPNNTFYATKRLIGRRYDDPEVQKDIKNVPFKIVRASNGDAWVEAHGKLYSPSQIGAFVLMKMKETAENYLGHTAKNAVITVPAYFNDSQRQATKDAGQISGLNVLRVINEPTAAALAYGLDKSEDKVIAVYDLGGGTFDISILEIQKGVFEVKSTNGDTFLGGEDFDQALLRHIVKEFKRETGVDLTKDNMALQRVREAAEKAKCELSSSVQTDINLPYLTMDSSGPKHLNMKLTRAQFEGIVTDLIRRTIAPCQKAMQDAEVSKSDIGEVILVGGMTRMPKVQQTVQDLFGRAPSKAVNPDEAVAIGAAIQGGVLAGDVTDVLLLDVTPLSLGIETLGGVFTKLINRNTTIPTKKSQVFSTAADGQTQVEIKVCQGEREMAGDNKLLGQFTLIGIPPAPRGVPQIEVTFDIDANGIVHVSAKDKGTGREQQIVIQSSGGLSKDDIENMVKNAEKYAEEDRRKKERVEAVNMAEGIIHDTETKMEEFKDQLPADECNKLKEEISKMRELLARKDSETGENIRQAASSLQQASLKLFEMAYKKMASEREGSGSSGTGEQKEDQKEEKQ
Chain of UniProt Q9UBW7 (Q9UBW7 whole entry): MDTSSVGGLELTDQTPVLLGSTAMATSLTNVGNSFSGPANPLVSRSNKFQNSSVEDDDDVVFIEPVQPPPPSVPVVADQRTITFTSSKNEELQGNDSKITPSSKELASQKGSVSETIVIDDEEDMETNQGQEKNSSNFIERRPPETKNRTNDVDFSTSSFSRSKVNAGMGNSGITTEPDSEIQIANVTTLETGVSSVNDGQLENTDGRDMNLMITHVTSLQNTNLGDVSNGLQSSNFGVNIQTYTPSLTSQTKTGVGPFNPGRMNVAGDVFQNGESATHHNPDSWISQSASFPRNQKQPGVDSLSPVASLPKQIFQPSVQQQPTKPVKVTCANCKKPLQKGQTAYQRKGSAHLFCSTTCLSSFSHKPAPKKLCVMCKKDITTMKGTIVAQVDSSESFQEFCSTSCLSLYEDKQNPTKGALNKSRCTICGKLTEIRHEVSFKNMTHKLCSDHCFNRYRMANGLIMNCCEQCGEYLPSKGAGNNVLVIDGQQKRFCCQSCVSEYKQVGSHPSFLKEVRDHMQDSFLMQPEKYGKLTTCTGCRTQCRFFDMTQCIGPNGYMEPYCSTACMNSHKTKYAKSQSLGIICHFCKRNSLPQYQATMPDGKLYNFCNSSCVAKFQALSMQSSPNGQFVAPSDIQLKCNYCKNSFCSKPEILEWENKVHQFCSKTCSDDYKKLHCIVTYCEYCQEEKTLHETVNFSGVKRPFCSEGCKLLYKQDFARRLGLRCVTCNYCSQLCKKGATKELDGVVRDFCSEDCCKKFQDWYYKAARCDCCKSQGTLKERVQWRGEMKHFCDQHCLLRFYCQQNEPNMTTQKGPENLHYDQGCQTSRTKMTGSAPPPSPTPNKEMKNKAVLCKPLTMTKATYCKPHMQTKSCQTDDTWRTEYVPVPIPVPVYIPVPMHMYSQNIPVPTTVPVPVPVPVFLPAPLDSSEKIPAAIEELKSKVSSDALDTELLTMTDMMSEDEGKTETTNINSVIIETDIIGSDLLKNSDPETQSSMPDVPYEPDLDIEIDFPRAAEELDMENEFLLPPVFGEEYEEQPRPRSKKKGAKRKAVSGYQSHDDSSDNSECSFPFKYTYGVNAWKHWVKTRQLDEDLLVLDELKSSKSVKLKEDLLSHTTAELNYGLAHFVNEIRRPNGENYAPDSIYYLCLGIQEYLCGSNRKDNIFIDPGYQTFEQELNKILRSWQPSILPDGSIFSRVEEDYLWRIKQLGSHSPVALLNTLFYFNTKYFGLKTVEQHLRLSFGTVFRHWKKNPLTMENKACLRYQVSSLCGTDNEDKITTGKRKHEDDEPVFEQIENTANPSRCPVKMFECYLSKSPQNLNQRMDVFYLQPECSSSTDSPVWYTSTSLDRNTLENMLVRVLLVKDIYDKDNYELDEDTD
Chain of UniProt Q00013 (Q00013 whole entry): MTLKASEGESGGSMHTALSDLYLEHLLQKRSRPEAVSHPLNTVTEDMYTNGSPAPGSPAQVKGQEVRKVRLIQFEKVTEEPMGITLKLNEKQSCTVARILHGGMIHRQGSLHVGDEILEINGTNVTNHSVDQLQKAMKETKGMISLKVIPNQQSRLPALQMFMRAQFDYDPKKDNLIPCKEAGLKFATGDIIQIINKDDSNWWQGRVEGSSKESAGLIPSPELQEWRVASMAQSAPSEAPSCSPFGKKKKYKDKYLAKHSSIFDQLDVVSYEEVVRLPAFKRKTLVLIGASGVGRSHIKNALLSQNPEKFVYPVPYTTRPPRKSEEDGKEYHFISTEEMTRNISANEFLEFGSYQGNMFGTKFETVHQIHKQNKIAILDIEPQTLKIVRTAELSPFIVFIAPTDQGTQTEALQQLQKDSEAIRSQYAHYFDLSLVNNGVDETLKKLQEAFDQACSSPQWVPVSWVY
Chain of UniProt Q9UHB4 (Q9UHB4 whole entry): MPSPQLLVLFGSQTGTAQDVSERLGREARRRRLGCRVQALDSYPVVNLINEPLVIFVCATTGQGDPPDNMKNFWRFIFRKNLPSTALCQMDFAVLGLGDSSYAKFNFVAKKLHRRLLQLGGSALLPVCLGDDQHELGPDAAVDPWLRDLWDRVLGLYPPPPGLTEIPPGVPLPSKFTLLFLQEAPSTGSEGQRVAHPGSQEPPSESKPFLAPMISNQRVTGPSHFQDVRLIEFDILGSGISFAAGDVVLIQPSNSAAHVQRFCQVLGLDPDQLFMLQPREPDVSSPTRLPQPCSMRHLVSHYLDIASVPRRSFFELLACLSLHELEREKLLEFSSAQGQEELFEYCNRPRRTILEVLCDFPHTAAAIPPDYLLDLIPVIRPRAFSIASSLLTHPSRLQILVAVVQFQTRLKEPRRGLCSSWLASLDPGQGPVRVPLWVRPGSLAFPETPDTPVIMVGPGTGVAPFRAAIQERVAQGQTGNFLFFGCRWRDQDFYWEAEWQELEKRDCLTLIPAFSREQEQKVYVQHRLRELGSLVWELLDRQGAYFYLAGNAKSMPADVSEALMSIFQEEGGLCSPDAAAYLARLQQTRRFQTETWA
Chain of UniProt Q9BRQ8 (Q9BRQ8 whole entry): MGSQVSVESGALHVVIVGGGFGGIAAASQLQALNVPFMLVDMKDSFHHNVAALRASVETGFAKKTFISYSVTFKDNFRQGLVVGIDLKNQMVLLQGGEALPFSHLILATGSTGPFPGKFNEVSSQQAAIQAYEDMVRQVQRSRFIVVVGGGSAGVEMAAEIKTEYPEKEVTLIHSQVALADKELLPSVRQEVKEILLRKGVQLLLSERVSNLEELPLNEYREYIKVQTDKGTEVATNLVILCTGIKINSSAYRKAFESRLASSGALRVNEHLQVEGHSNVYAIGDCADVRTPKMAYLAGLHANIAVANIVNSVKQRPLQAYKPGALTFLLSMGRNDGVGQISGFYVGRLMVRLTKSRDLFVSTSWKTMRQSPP
Chain of UniProt Q9UK45 (Q9UK45 whole entry): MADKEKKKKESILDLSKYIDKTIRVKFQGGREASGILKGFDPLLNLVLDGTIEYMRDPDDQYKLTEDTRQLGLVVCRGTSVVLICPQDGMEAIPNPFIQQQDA

Which thermal stability z-score does the source give for CDC27 (UniProt P30260) here?
Its thermal stability z-score is -0.522.

How did the thermal stability z-score turn out when MARC1 (UniProt Q5VT66) was run?
Its thermal stability z-score is 1.12.

With TRMT11 (UniProt Q7Z4G4) as the target, how does the thermal stability z-score read?
The thermal stability z-score was -0.518.

For RPL6 (UniProt Q02878), which thermal stability z-score is on record?
The thermal stability z-score was -0.92.

For NDOR1 (UniProt Q9UHB4), which thermal stability z-score is on record?
Its thermal stability z-score is 1.08.

FAR1 (UniProt Q8WVX9) was tested. Which thermal stability z-score did it give?
The thermal stability z-score was 0.544.

MANF (UniProt P55145) was tested. Which thermal stability z-score did it give?
Its thermal stability z-score is 0.0791.

How did the thermal stability z-score turn out when RCOR1 (UniProt Q9UKL0) was run?
Its thermal stability z-score is -0.739.

With RNPEP (UniProt Q9H4A4) as the target, how does the thermal stability z-score read?
Its thermal stability z-score is 0.878.

With MMGT1 (UniProt Q8N4V1) as the target, how does the thermal stability z-score read?
Its thermal stability z-score is 0.966.

For ANAPC5 (UniProt Q9UJX4), which thermal stability z-score is on record?
Its thermal stability z-score is -0.0639.

With RFC1 (UniProt P35251) as the target, how does the thermal stability z-score read?
Its thermal stability z-score is -0.0625.

How did the thermal stability z-score turn out when MYH14 (UniProt Q7Z406) was run?
The thermal stability z-score was 0.458.

Which thermal stability z-score does the source give for AIFM2 (UniProt Q9BRQ8) here?
The thermal stability z-score was 0.776.

With MRPL24 (UniProt Q96A35) as the target, how does the thermal stability z-score read?
The thermal stability z-score was -0.261.

How did the thermal stability z-score turn out when USP39 (UniProt Q53GS9) was run?
The thermal stability z-score was -0.489.

For HSPA9 (UniProt P38646), which thermal stability z-score is on record?
The thermal stability z-score was -1.36.

With ODF2 (UniProt Q5BJF6) as the target, how does the thermal stability z-score read?
Its thermal stability z-score is -0.129.

With ERCC4 (UniProt Q92889) as the target, how does the thermal stability z-score read?
The thermal stability z-score was -0.123.

How did the thermal stability z-score turn out when MCM7 (UniProt P33993) was run?
Its thermal stability z-score is -0.228.

For LSM7 (UniProt Q9UK45), which thermal stability z-score is on record?
The thermal stability z-score was -0.425.

How did the thermal stability z-score turn out when ZMYM2 (UniProt Q9UBW7) was run?
Its thermal stability z-score is -0.802.

ZC3HAV1L (UniProt Q96H79) was tested. Which thermal stability z-score did it give?
Its thermal stability z-score is 0.0902.

For GGA1 (UniProt Q9UJY5), which thermal stability z-score is on record?
Its thermal stability z-score is 0.27.

NPR3 (UniProt P17342) was tested. Which thermal stability z-score did it give?
Its thermal stability z-score is -0.486.

For CTNNAL1 (UniProt Q9UBT7), which thermal stability z-score is on record?
Its thermal stability z-score is 0.675.

How did the thermal stability z-score turn out when UBQLN4 (UniProt Q9NRR5) was run?
The thermal stability z-score was 0.334.

How did the thermal stability z-score turn out when SAMHD1 (UniProt Q9Y3Z3) was run?
Its thermal stability z-score is 0.738.

Which thermal stability z-score does the source give for ZC3HC1 (UniProt Q86WB0) here?
Its thermal stability z-score is -0.364.

For CCDC50 (UniProt Q8IVM0), which thermal stability z-score is on record?
The thermal stability z-score was -0.0338.

With MPP1 (UniProt Q00013) as the target, how does the thermal stability z-score read?
The thermal stability z-score was -0.163.

How did the thermal stability z-score turn out when EHD2 (UniProt Q9NZN4) was run?
Its thermal stability z-score is -0.781.

How did the thermal stability z-score turn out when DDX39A (UniProt O00148) was run?
Its thermal stability z-score is 0.441.

Which thermal stability z-score does the source give for SYNCRIP (UniProt O60506) here?
The thermal stability z-score was -0.00709.

Which thermal stability z-score does the source give for ATF1 (UniProt P18846) here?
The thermal stability z-score was -0.0555.

With MYO10 (UniProt Q9HD67) as the target, how does the thermal stability z-score read?
The thermal stability z-score was 0.432.

For DYNC1I2 (UniProt Q13409), which thermal stability z-score is on record?
Its thermal stability z-score is -0.19.

With NUDT21 (UniProt O43809) as the target, how does the thermal stability z-score read?
The thermal stability z-score was -0.633.

Which thermal stability z-score does the source give for MDH1 (UniProt P40925) here?
The thermal stability z-score was -1.45.

For CASP3 (UniProt P42574), which thermal stability z-score is on record?
Its thermal stability z-score is -0.737.

MRPL2 (UniProt Q5T653) was tested. Which thermal stability z-score did it give?
Its thermal stability z-score is 0.601.

With CNOT3 (UniProt O75175) as the target, how does the thermal stability z-score read?
The thermal stability z-score was 1.26.

How did the thermal stability z-score turn out when TBC1D10A (UniProt Q9BXI6) was run?
Its thermal stability z-score is 0.0768.

How did the thermal stability z-score turn out when USP4 (UniProt Q13107) was run?
Its thermal stability z-score is -0.141.

With EXOSC3 (UniProt Q9NQT5) as the target, how does the thermal stability z-score read?
The thermal stability z-score was -0.385.

Which thermal stability z-score does the source give for STRN (UniProt O43815) here?
The thermal stability z-score was 0.345.

With HNRNPAB (UniProt Q99729) as the target, how does the thermal stability z-score read?
The thermal stability z-score was -0.447.

For SPAG5 (UniProt Q96R06), which thermal stability z-score is on record?
Its thermal stability z-score is -0.162.

For KLF4 (UniProt O43474), which thermal stability z-score is on record?
The thermal stability z-score was -1.07.

Which thermal stability z-score does the source give for PRTFDC1 (UniProt Q9NRG1) here?
The thermal stability z-score was -0.386.

Which thermal stability z-score does the source give for URGCP (UniProt Q8TCY9) here?
Its thermal stability z-score is 1.12.

For MTHFS (UniProt P49914), which thermal stability z-score is on record?
The thermal stability z-score was -0.488.

For ABHD11 (UniProt Q8NFV4), which thermal stability z-score is on record?
The thermal stability z-score was 0.254.

With ATP5B (UniProt P06576) as the target, how does the thermal stability z-score read?
The thermal stability z-score was 0.0331.

Which thermal stability z-score does the source give for LAMP1 (UniProt P11279) here?
Its thermal stability z-score is -0.0209.

How did the thermal stability z-score turn out when CKS2 (UniProt P33552) was run?
The thermal stability z-score was 0.179.

With PICALM (UniProt Q13492) as the target, how does the thermal stability z-score read?
The thermal stability z-score was -0.0231.

Which thermal stability z-score does the source give for LEMD2 (UniProt Q8NC56) here?
Its thermal stability z-score is -0.503.

Which thermal stability z-score does the source give for FHL1 (UniProt Q13642) here?
Its thermal stability z-score is -0.17.

For MYO9B (UniProt Q13459), which thermal stability z-score is on record?
The thermal stability z-score was -0.364.

STAMBP (UniProt O95630) was tested. Which thermal stability z-score did it give?
Its thermal stability z-score is 1.23.

How did the thermal stability z-score turn out when GARS (UniProt P41250) was run?
The thermal stability z-score was -0.919.

For DPP3 (UniProt Q9NY33), which thermal stability z-score is on record?
The thermal stability z-score was -0.00156.

How did the thermal stability z-score turn out when PUS7 (UniProt Q96PZ0) was run?
Its thermal stability z-score is 0.651.

SLC12A4 (UniProt Q9UP95) was tested. Which thermal stability z-score did it give?
Its thermal stability z-score is -0.606.

Which thermal stability z-score does the source give for PHACTR4 (UniProt Q8IZ21) here?
Its thermal stability z-score is -0.282.

Which thermal stability z-score does the source give for NOLC1 (UniProt Q14978) here?
Its thermal stability z-score is -0.695.

For TMEM65 (UniProt Q6PI78), which thermal stability z-score is on record?
The thermal stability z-score was 0.128.

For ECT2 (UniProt Q9H8V3), which thermal stability z-score is on record?
The thermal stability z-score was -0.475.

CEP55 (UniProt Q53EZ4) was tested. Which thermal stability z-score did it give?
The thermal stability z-score was -0.0317.

UAP1L1 (UniProt Q3KQV9) was tested. Which thermal stability z-score did it give?
The thermal stability z-score was -0.793.

The targets below were run with NC(=O)CCCCC1CCSS1 [lipoamide] in the same assay as above. Conditions: HeLa; lipoamide concentration 100 µM; arsenate co-treatment: 1 mM arsenate 1 h.
Description: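 Cellular thermal proteome profiling in HeLa cells. Cells were treated with 100 µM lipoamide for 1 h, with or without 1 mM arsenate for a further 1 h, then heated to ten temperatures (37-66.3 °C), and soluble protein was quantified by TMT mass spectrometry relative to 0.1% DMSO controls. The thermal stability score (sum of log2 fold changes minus the abundance score) was transformed to a z-score; mean of n = 3 experiments.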

With CDC27 (UniProt P30260) as the target, how does the thermal stability z-score read?
Its thermal stability z-score is 0.122.

With MARC1 (UniProt Q5VT66) as the target, how does the thermal stability z-score read?
Its thermal stability z-score is 0.204.

For TRMT11 (UniProt Q7Z4G4), which thermal stability z-score is on record?
The thermal stability z-score was 0.259.

Which thermal stability z-score does the source give for RPL6 (UniProt Q02878) here?
The thermal stability z-score was 0.349.

With NDOR1 (UniProt Q9UHB4) as the target, how does the thermal stability z-score read?
Its thermal stability z-score is 0.000709.

Which thermal stability z-score does the source give for FAR1 (UniProt Q8WVX9) here?
Its thermal stability z-score is -0.177.

Which thermal stability z-score does the source give for MANF (UniProt P55145) here?
Its thermal stability z-score is 0.0932.

With RCOR1 (UniProt Q9UKL0) as the target, how does the thermal stability z-score read?
The thermal stability z-score was 1.01.

RNPEP (UniProt Q9H4A4) was tested. Which thermal stability z-score did it give?
Its thermal stability z-score is 0.126.

MMGT1 (UniProt Q8N4V1) was tested. Which thermal stability z-score did it give?
The thermal stability z-score was 0.584.

For ANAPC5 (UniProt Q9UJX4), which thermal stability z-score is on record?
The thermal stability z-score was 0.0562.

RFC1 (UniProt P35251) was tested. Which thermal stability z-score did it give?
The thermal stability z-score was -0.248.

With MYH14 (UniProt Q7Z406) as the target, how does the thermal stability z-score read?
The thermal stability z-score was 0.363.

With AIFM2 (UniProt Q9BRQ8) as the target, how does the thermal stability z-score read?
Its thermal stability z-score is 0.556.

MRPL24 (UniProt Q96A35) was tested. Which thermal stability z-score did it give?
The thermal stability z-score was -0.411.

How did the thermal stability z-score turn out when USP39 (UniProt Q53GS9) was run?
Its thermal stability z-score is -0.384.

For HSPA9 (UniProt P38646), which thermal stability z-score is on record?
The thermal stability z-score was -1.1.

ODF2 (UniProt Q5BJF6) was tested. Which thermal stability z-score did it give?
The thermal stability z-score was 0.0591.

Which thermal stability z-score does the source give for ERCC4 (UniProt Q92889) here?
The thermal stability z-score was -0.252.

How did the thermal stability z-score turn out when MCM7 (UniProt P33993) was run?
The thermal stability z-score was -0.43.

For LSM7 (UniProt Q9UK45), which thermal stability z-score is on record?
Its thermal stability z-score is 0.466.

How did the thermal stability z-score turn out when ZMYM2 (UniProt Q9UBW7) was run?
Its thermal stability z-score is -0.105.

For ZC3HAV1L (UniProt Q96H79), which thermal stability z-score is on record?
The thermal stability z-score was 0.323.

GGA1 (UniProt Q9UJY5) was tested. Which thermal stability z-score did it give?
The thermal stability z-score was -0.523.

With NPR3 (UniProt P17342) as the target, how does the thermal stability z-score read?
The thermal stability z-score was 0.2.

How did the thermal stability z-score turn out when CTNNAL1 (UniProt Q9UBT7) was run?
Its thermal stability z-score is 0.0967.

With UBQLN4 (UniProt Q9NRR5) as the target, how does the thermal stability z-score read?
The thermal stability z-score was 1.81.

How did the thermal stability z-score turn out when SAMHD1 (UniProt Q9Y3Z3) was run?
The thermal stability z-score was -0.0165.

With ZC3HC1 (UniProt Q86WB0) as the target, how does the thermal stability z-score read?
Its thermal stability z-score is -0.377.

CCDC50 (UniProt Q8IVM0) was tested. Which thermal stability z-score did it give?
The thermal stability z-score was 0.557.

How did the thermal stability z-score turn out when MPP1 (UniProt Q00013) was run?
The thermal stability z-score was -0.0663.

For EHD2 (UniProt Q9NZN4), which thermal stability z-score is on record?
The thermal stability z-score was -0.612.

How did the thermal stability z-score turn out when DDX39A (UniProt O00148) was run?
The thermal stability z-score was -0.214.

How did the thermal stability z-score turn out when SYNCRIP (UniProt O60506) was run?
Its thermal stability z-score is 0.0582.

Which thermal stability z-score does the source give for ATF1 (UniProt P18846) here?
Its thermal stability z-score is 1.13.
